Laboratory results taken from patent US7982043B2, “Protein tyrosine kinase enzyme inhibitors” (Wyeth LLC, priority 2003, dated 2011).
pIC50: −log10 of the molar value. In brackets after ≈: the same amount, converted by molar mass. Read-outs that look alike come from different tables or passages of the source.

Tests used:
[1] = molecular target: T1, recombinant cytoplasmic domain of HER-2 (Homo sapiens, UniProt P04626); experiment: Cell-free autophosphorylation kinase assay (ELISA), HER-2; format: biochemical
T1 construct: In a cell-free autophosphorylation assay using the recombinant cytoplasmic domain of HER-2

[2] = test system: 3T3 cells; experiment: Cell proliferation assay (SRB), 3T3; format: cell-based, mouse; details: for IC50: NIH3T3, 48 h, read-out: CELL IC50 3T3
[3] = molecular target: mouse fibroblast cell line transfected with the HER-2 oncogene (3T3/neu) (UniProt P04626, cells depend on it, species not given); experiment: Cell proliferation assay (SRB), 3T3/neu; format: cell-based
[4] = test system: A431 cells; experiment: Cell proliferation assay (SRB), A431; format: cell-based; details: for IC50: Homo sapiens, A-431, 48 h, read-out: CELL IC50 A431
[5] = test system: SK-Br-3 cells; experiment: Cell proliferation assay (SRB), SK-Br-3; format: cell-based; details: for IC50: Homo sapiens, SK-BR-3, 48 h, read-out: CELL IC50 SKBr3
[6] = test system: BT474 cells; experiment: Cell proliferation assay (SRB), BT474; format: cell-based, human; details: for IC50: Homo sapiens, BT-474, 144 h, read-out: CELL IC50 BT474
[7] = test system: MDA-MB-435 cells; experiment: Cell proliferation assay (SRB), MDA-MB-435; format: cell-based; details: for IC50: Homo sapiens, MDA-MB-435, 48 h, read-out: CELL IC50 MDA-MB-435
[8] = test system: SW620 cells; experiment: Cell proliferation assay (SRB), SW620; format: cell-based; details: for IC50: Homo sapiens, SW-620, 48 h, read-out: CELL IC50 SW620
[9] = test system: xenografts of 3T3/neu cells; experiment: 3T3/neu tumor xenograft in nude mice; format: in vivo, mouse; details: day 21
[10] = test system: BT474 xenografts; experiment: BT474 tumor xenograft in nude mice; format: in vivo, mouse; details: day 21
[11] = test system: HER-2 overexpressing human xenograft models; experiment: HER-2 overexpressing human xenograft models (overall); format: in vivo, mouse; details: mouse, in vivo
[12] = molecular target: T2, Her-2 (Homo sapiens, UniProt P04626); experiment: Her-2 receptor phosphorylation in BT474 cells (immunoblot); format: cell-based; details: Her-2 phosphorylation, 3 hours at 37° C., immunoblot; for IC50: read-out: IC50 receptor phosphorylation BT474 (converted)
T2 construct: For Her-2 and EGFR phosphorylation assays, cells (BT474 and A431, respectively) were incubated with various concentrations of compound; endogenous in cells; host or cells: BT474

[13] = EGFR −, Her-2 +++, 2 days, SRB, read-out: CELL IC50 3T3/NEU (converted)

Molecule	GI50 [3, 13] [nM]	IC50 ([5]; EGFR −, Her-2 +++, 2 days, SRB) [µg/mL]	IC50 ([7]; EGFR −, Her-2 −, 2 days, SRB) [µg/mL]	IC50 ([8]; EGFR −, Her-2 −, 2 days, SRB) [µg/mL]	IC50 [12] [nM]	IC50 ([4]; EGFR +++, Her-2 +, 2 days, SRB) [µg/mL]	also measured
CCOc1cc2ncc(C#N)c(Nc3ccc(OCc4ccccn4)c(Cl)c3)c2cc1NC(=O)/C=C/CN(C)C [Example 2, (E)-N-{4-[3-chloro-4-(2-pyridinylmethoxy)anilino]-3-cyano-7-ethoxy-6-quinolinyl}-4-(dimethylamino)-2-butenamide]	–	–	–	–	–	–	inhibition of the HER-2 enzyme (in words) [1]: potent inhibitors; IC50 ([2]; Mus musculus): 0.39 µg/mL; pIC50 ([2]; Mus musculus, NIH3T3, read-out: IC50 isogenic untransfected cells (3T3)): 6.04 to 6.17; GI50 ([3]; read-out: CELL IC50 3T3/NEU, mouse fibroblast cell line transfected with the her-2 oncogene (3t3/neu)): 3.23 nM; IC50 [4]: 0.045 µg/mL (≈ 0.0808 µM); IC50 [5]: 0.001 µg/mL (≈ 0.0018 µM); IC50 [6]: 0.0013 µg/mL (≈ 0.00233 µM); IC50 [7]: 0.44 µg/mL (≈ 0.79 µM); IC50 [8]: 0.44 µg/mL (≈ 0.79 µM); tumor growth inhibition ([9]; 20 mg/kg/day PO): 53%; tumor growth inhibition ([9]; 40 mg/kg/day PO): 95%; tumor growth inhibition ([9]; 80 mg/kg/day PO): 98%; maximum tumor growth inhibition ([10]; 10 mg/kg/day PO): 76%; maximum tumor growth inhibition ([10]; 40 mg/kg/day PO): 95%; MED in the HER-2 overexpressing human xenograft models [11]: ~10 mg/kg/day
CCOc1cc2ncc(C#N)c(Nc3ccc(F)c(Cl)c3)c2cc1NC(=O)C=CCN(C)C [Example 20, 4-Dimethyl-but-2-enoic acid [4-(3-chloro-4-fluoro-phenylamino)-3-cyano-7-ethoxy-quinolin-6-yl]-amide]	–	–	–	–	–	–	inhibition of the HER-2 enzyme (in words) [1]: is not; Enzyme IC50 HER-2 ([1]; autophosphorylation, ELISA): 0.58 µg/mL; CELL IC50 3T3 ([2]; EGFR −, Her-2 −, 2 days, SRB): 0.26 µg/mL; CELL IC50 SKBr3 ([5]; EGFR −, Her-2 +++, 2 days, SRB): 0.0071 µg/mL; CELL IC50 BT474 ([6]; EGFR +, Her-2 +++, 6 days, SRB): 0.020 µg/mL; CELL IC50 MDA-MB-435 ([7]; EGFR −, Her-2 −, 2 days, SRB): 0.34 µg/mL; CELL IC50 SW620 ([8]; EGFR −, Her-2 −, 2 days, SRB): 0.32 µg/mL; IC50 receptor phosphorylation BT474 [12]: 0.080 µg/mL (≈ 0.171 µM)
COc1cc2ncc(C#N)c(Nc3ccc(Sc4nccn4C)c(Cl)c3)c2cc1NC(=O)/C=C/CN(C)C [Example 37, (2E)-N-[4-({3-chloro-4-[(1-methyl-1H-imidazol-2-yl)sulfanyl]phenyl}amino)-3-cyano-7-methoxy-6-quinolinyl]-4-(dimethylamino)-2-butenamide]	36.5	0.0004 (≈ 0.00073 µM)	0.43 (≈ 0.785 µM)	0.43 (≈ 0.785 µM)	< 1820	–	IC50 [4]: 0.02 µg/mL (≈ 0.0365 µM)
COc1cc2ncc(C#N)c(Nc3ccc(Sc4nccs4)c(Cl)c3)c2cc1NC(=O)/C=C/CN(C)C [Example 40, (2E)-N-(4-{[3-chloro-4-(1,3-thiazol-2-ylsulfanyl)phenyl]amino}-3-cyano-7-methoxy-6-quinolinyl)-4-(dimethylamino)-2-butenamide]	3.63	0.0007 (≈ 0.00127 µM)	0.33 (≈ 0.599 µM)	1.13 (≈ 2.05 µM)	18100 to 90700	–	IC50 [4]: 0.017 µg/mL (≈ 0.0308 µM)
COc1cc2ncc(C#N)c(Nc3ccc(Sc4nc(-c5ccccc5)cs4)c(Cl)c3)c2cc1NC(=O)/C=C/CN(C)C [Example 58, (E)-N-(4-{3-chloro-4-[(4-phenyl-1,3-thiazol-2-yl)sulfanyl]anilino}-3-cyano-7-methoxy-6-quinolinyl)-4-(dimethylamino)-2-butenamide]	44.6	0.005 (≈ 0.00797 µM)	0.23 (≈ 0.367 µM)	0.57 (≈ 0.909 µM)	79700 to 797000	0.162 (≈ 0.258 µM)	–
CCOc1cc2ncc(C#N)c(Nc3ccc(Sc4nc(-c5ccccc5)cs4)c(C(F)(F)F)c3)c2cc1NC(=O)/C=C/CN(C)C [Example 69, (E)-N-{3-cyano-7-ethoxy-4-[4-[(4-phenyl-1,3-thiazol-2-yl)sulfanyl]-3-(trifluoromethyl)anilino]-6-quinolinyl}-4-(dimethylamino)-2-butenamide]	622	> 5	0.3 (≈ 0.445 µM)	0.6 (≈ 0.889 µM)	–	0.3 (≈ 0.445 µM)	–
COc1cc2ncc(C#N)c(Nc3ccc(Sc4ncc(-c5ccccc5)s4)c(Cl)c3)c2cc1NC(=O)/C=C/CN(C)C [Example 70, (E)-N-(4-{3-chloro-4-[(5-phenyl-1,3-thiazol-2-yl)sulfanyl]anilino}-3-cyano-7-methoxy-6-quinolinyl)-4-(dimethylamino)-2-butenamide]	191	0.01 (≈ 0.0159 µM)	0.08 (≈ 0.128 µM)	0.5 (≈ 0.797 µM)	–	0.22 (≈ 0.351 µM)	–
COCCN(C)C/C=C/C(=O)Nc1cc2c(Nc3ccc(Sc4nccs4)c(Cl)c3)c(C#N)cnc2cc1OC [Example 71, (E)-N-{4-[3-chloro-4-(1,3-thiazol-2-ylsulfanyl)anilino]-3-cyano-7-methoxy-6-quinolinyl}-4-[(2-methoxyethyl)(methyl)amino]-2-butenamide]	3.36	0.002 (≈ 0.00336 µM)	0.09 (≈ 0.151 µM)	0.4 (≈ 0.672 µM)	–	0.03 (≈ 0.0504 µM)	–
CCOc1cc2ncc(C#N)c(Nc3ccc(Sc4nc(-c5ccccc5)cs4)c(Cl)c3)c2cc1NC(=O)/C=C/CN(C)C [Example 72, (E)-N-(4-{3-chloro-4-[(4-phenyl-1,3-thiazol-2-yl)sulfanyl]anilino}-3-cyano-7-ethoxy-6-quinolinyl)-4-(dimethylamino)-2-butenamide]	31.2	0.006 (≈ 0.00936 µM)	0.18 (≈ 0.281 µM)	0.54 (≈ 0.842 µM)	–	0.24 (≈ 0.374 µM)	–
CCOc1cc2ncc(C#N)c(Nc3ccc(Sc4nc(C)cc(C)n4)c(Cl)c3)c2cc1[N+](=O)[O-] [Example 74, 4-{3-chloro-4-[(4,6-dimethyl-2-pyrimidinyl)sulfanyl]anilino}-7-ethoxy-6-nitro-3-quinolinecarbonitrile]	> 9860	> 5	4.1 (≈ 8.09 µM)	> 5	–	> 5	–
CCOc1cc2ncc(C#N)c(Nc3ccc(Sc4nc(C)cc(C)n4)c(Cl)c3)c2cc1N [Example 75, 6-amino-4-{3-chloro-4-[(4,6-dimethyl-2-pyrimidinyl)sulfanyl]anilino}-7-ethoxy-3-quinolinecarbonitrile]	4440	0.98 (≈ 2.05 µM)	1.3 (≈ 2.73 µM)	1.36 (≈ 2.85 µM)	–	0.76 (≈ 1.59 µM)	–
CCOc1cc2ncc(C#N)c(Nc3ccc(OCc4cccs4)c(Cl)c3)c2cc1NC(=O)/C=C/CN(C)C [Example 76, (2E)-N-{4-[3-chloro-4-(2-thienylmethoxy)anilino]-3-cyano-7-ethoxy-6-quinolinyl}-4-(dimethylamino)-2-butenamide]	6.94	0.004 (≈ 0.00712 µM)	0.77 (≈ 1.37 µM)	0.25 (≈ 0.445 µM)	2.67	–	IC50 ([2]; Mus musculus, EGFR −, Her-2 −, 2 days, SRB): 0.41 µg/mL; IC50 ([6]; EGFR +, Her-2 +++, 6 days, SRB): 0.003 µg/mL (≈ 0.00534 µM)
(E)-N-{4-[3-chloro-4-(1H-imidazol-1-yl)anilino]-3-cyano-7-methoxy-6-quinolinyl}-azol-1-yl)anilino]-4-(dimethylamino)-2-)anilino-2-butenamide [Example 43]	–	–	–	–	–	–	CELL IC50 3T3/NEU ([3]; EGFR −, Her-2 +++, 2 days, SRB): 1.46 µg/mL; CELL IC50 A431 ([4]; EGFR +++, Her-2 +, 2 days, SRB): 0.51 µg/mL; CELL IC50 SKBr3 ([5]; EGFR −, Her-2 +++, 2 days, SRB): 0.32 µg/mL; CELL IC50 MDA-MB-435 ([7]; EGFR −, Her-2 −, 2 days, SRB): 0.57 µg/mL; CELL IC50 SW620 ([8]; EGFR −, Her-2 −, 2 days, SRB): 1.45 µg/mL
